From patent publication US8043623B2, “Immunogenic peptides for the treatment of prostate and breast cancer” (The Government of the United States of America as …, priority 2003, dated 2011)
Entries after “also recorded” stand apart in the source; their conditions may differ.

Columns and labels:
MCF-7 = assay: CTL assay against human tumor cells (MCF-7); format: cell-based
Protocol: (§1) In vitro human CD8^+ T cell priming with DC. Elutriated monocytes and lymphocytes were obtained from HLA-A2.1-positive patients or normal donors. To prepare DC, monocytes were cultured at 10^6 cells/ml in complete medium containing human IL-4 (1000 units/ml) and human GM-CSF (1000 units/ml). On day 2 and 4, half of the media was exchanged. To mature the DC, CD40 ligand trimer (Immunex, Seattle, Wash.) was added at 1 μg/ml on day 4 or 5, and then further cultured for 2 or 3 days. Cells were harvested on day 7, and then pulsed with 10 μM of peptides for 2 hours before γ-irradiation. 1×10^5 peptide-pulsed DC and 2×10^6 autologous CD8^+ T cells were mixed and cultured in 24-well plates. 10 units/ml IL-2 was added on day 2 during restimulation. Cells were restimulated every 7-9 days approximately 4-7 cycles.
(§2) CTL assay. For murine CTL, CD8^+ T cells from the immunized mice were restimulated with peptide-loaded splenocytes for one week as previously described (Oh et al., J Immunol 170:2523, 2003), and then applied to 5 hour ^51Cr release assays. Target cells were labeled with ^51Cr first and washed twice. Cells were then pulsed with peptides for 2 hours and used as target cells without further washing. For human CTL, target cells were also labeled with ^51Cr first, and then loaded with peptides. In the CTL assay against human tumor cells, target cells were incubated in the complete medium containing 1000 units/ml IFN-γ for 72 hours. The mean of triplicate samples was calculated, and the percentage of specific lysis was determined using the following formula: Percentage of specific lysis=100×[(experimental ^51Cr release−control ^51Cr release)/(maximum ^51Cr release−control ^51Cr release)]. The maximum release refers to counts from targets in 2.5% Triton X-100.

[1] = test system: peptide-pulsed C1R-A2.1 target cells; assay: Human CTL 5-hour ^51Cr release assay on peptide-pulsed targets; format: cell-based; conditions: for cytolytic activity of human CD8^+ CTL raised with the peptide against targets pulsed with the corresponding peptide / recognition of TARP-27-35 by human CTL raised with the peptide: C1R-A2.1 targets; for cross-reactivity of human CD8^+ CTL raised with the peptide to other peptides (wild-type TARP-29-37, enhanced epitopes): C1R-A2.1 targets pulsed with 10 μM peptides; for peptide concentration at which CTLs specific for TARP-29-37-9V recognize targets pulsed with the named peptide (avidity): label = peptide pulsed on targets, effector = TARP-29-37-9V-specific human CTL
Protocol: as §1, §2

HLA-A2.1 molecules = target: T1, HLA-A2.1 molecules (Homo sapiens, UniProt P04439, D140Y/D185E/D98H/E176V/E277Q/G131W/G231S/I119V/I121R/I166T/I218V/L300P/L318F/N151K/N90K/P208A/P217A/Q86G/Q94H/R138H/R169H/T345S); assay: T2-binding assay; conditions: T2 cells; for binding capacity to HLA-A2.1 molecules: overnight with β2-microglobulin, anti-HLA-A2 staining
T1 construct: The T2 cell line is deficient in TAP1 and TAP2 transporter proteins and expresses low levels of HLA-A2.1; endogenous in cells; host or cells: T2 cell line (TAP1/TAP2-deficient)
Protocol: T2-binding assay. Peptide binding capacity to HLA-A2.1 molecules was measured by using the T2 cell line according to a protocol previously described (Nijman et al., Eu. J. Immunol. 23:1215, 1993). T2 cells (3×10^5/well) were incubated overnight in 96-well plates with culture medium (1:1 mixture of RPMI 1640/EHAA containing 2.5% FBS, 100 U/ml penicillin, 100 μg/ml streptomycin) with 10 μg/ml β2-microglobulin (Sigma) and different concentrations of peptide. Cells were washed twice with cold PBS containing 2% FBS and incubated for 30 minutes at 4° C. with anti-HLA-A2.1 BB7.2 mAb ( 1/80 dilution from hybridoma supernatant). After washing, cells were stained with FITC-labeled goat anti-mouse Ig (PharMingen, San Diego, Calif.) and the level of HLA-A2.1 expression was measured by flow cytometry. HLA-A2.1 expression was quantified as fluorescence index (FI) according to the formula: FI=(mean fluorescence intensity with peptide-mean fluorescence intensity without peptide)/mean fluorescence intensity without peptide.

A2K^b transgenic mice = assay: Immunization of A2K^b transgenic mice; murine CTL assay and intracellular IFN-γ staining; format: in vivo; conditions: for cross-reactivity of murine CD8^+ CTL induced with the peptide: recognition of wild-type TARP-29-37 and other peptides on pulsed targets: Jurkat-HLA-A2 targets pulsed with peptides; for cross-reactivity of murine CD8^+ CTL induced with the peptide: recognition of wild-type TARP-29-37 and other peptides on pulsed targets / killing of target cells pulsed with TARP-27-35 by murine CTL induced with the peptide: ^51Cr release; for frequency of CD8^+ T cells specific for the individual peptide, compared to wild-type TARP-29-37: mice immunized s.c. with peptide and cytokine in adjuvant, IFN-γ staining; for number of IFN-γ-producing CD8^+ T cells, of total CD8^+ T cells: mice immunized with peptide-pulsed DC, intracellular staining
Protocol: Immunizations. A2K^b transgenic mice were immunized with syngeneic peptide-loaded dendritic cells (DC), plasmid DNA expressing TARP, or the mixture of peptide and cytokine in incomplete Freund's adjuvant (IFA). For DC immunization, DC were pulsed with 10 μM peptide in serum-free RPMI for 2 hours at 37° C., and then mice were immunized subcutaneously (s.c.) with 1-3×10^5 DC without washing. DC were prepared from bone marrow as previously described (Celluzzi et al. J. Exp. Med. 183:283, 1996). Alternatively, mice were immunized intramuscularly with 100 μg plasmid DNA, pcDNA5/FRT/TARP, generated by inserting the TARP DNA into the pcDNA5/RFT (Invitrogen, Carlsbad, Calif.) vector. Mice were also immunized subcutaneously (s.c.) in the base of the tail with 100 μl of an emulsion containing 1:1 IFA and PBS with antigens and cytokines (50 nmol CTL epitope, 50 nmol HBV core 128-140 helper epitope, 3 μg of IL-12, and 5 μg of granulocyte macrophage colony stimulating factor (GM-CSF). IFA and cytokines were purchased from Sigma and Peptotech (Rocky Hill, N.J.), respectively.
as §2
Antibody and flow cytometry. FITC-labeled anti-mouse CD8 (53-6.7), CD11c, CD80 (B7-1), CD54 (ICAM-1), anti-human CD8 (RPA-T8), CD14 (M5E2), CD80 (B7-1), and CD86 (B7-2) were used for staining of cell surface molecules. For intracellular IFN-γ staining, cells were stained by following the manufacturer's protocol. All Abs and reagents were purchased from PharMingen. For flow cytometric analysis of cell surface, 5×10^5 cells were washed and resuspended in PBS containing 0.2% BSA and 0.1% sodium azide. Cells were incubated on ice with the appropriate antibody for 30 minutes and then washed. Samples were analyzed on a FACScan (BD Biosciences, Mountain View, Calif.). Background staining was assessed by use of an isotype control antibody. For tetramer staining, cells were incubated with FITC-labeled anti-CD8 for 10 minutes, and then stained with tetramers.

CD8^+ T cells = assay: In vitro human CD8^+ T cell priming with peptide-pulsed DC; format: cell-based; conditions: CD8^+ T cells of an HLA-A2.1-positive prostate cancer patient, peptide-pulsed autologous DC
Protocol: as §1

[2] = 50:1 E/T ratio, targets pre-incubated with IFN-γ 72 hours

## FVFLRNFSL (listed as Homo sapiens) [TARP-27-35]
MCF-7; [2]
  lytic activity against MCF-7 of CD8^+ CTL specific for the peptide: higher lytic activity against MCF-7; also recorded: could kill human tumor cells as well
[1]
  cytolytic activity of human CD8^+ CTL raised with the peptide against targets pulsed with the corresponding peptide: higher levels of cytolytic activity against the corresponding peptides; also recorded: lysed TARP-27-35-pulsed target cells
  cross-reactivity of human CD8^+ CTL raised with the peptide to other peptides (wild-type TARP-29-37, enhanced epitopes): poorly recognized other peptide/MHC complexes tested; also recorded: did not recognize other peptides as much as they did the immunogens
HLA-A2.1 molecules
  binding affinity to HLA-A2.1 molecules compared with another peptide: almost a ten-fold higher binding affinity
  binding capacity to HLA-A2.1 molecules: showed measurable binding capacity
A2K^b transgenic mice
  cross-reactivity of murine CD8^+ CTL induced with the peptide: recognition of wild-type TARP-29-37 and other peptides on pulsed targets: did not recognize TARP-29-37
  frequency of CD8^+ T cells specific for the individual peptide, compared to wild-type TARP-29-37: higher frequency of CD8^+ CTL specific for the peptide
  number of IFN-γ-producing CD8^+ T cells, of total CD8^+ T cells: 2.1%

## FLANFSLML (TARP peptide with a R3A substitution.) [TARP-29-37-3A]
MCF-7; [2]
  lytic activity against MCF-7 of CD8^+ CTL specific for the peptide: less lytic activity to MCF-7; also recorded: much lower lytic activity against tumor cells than CTLs to TARP-29-37-9V
MCF-7; 100:1 E/T ratio
  lytic activity against MCF-7 of CD8^+ CTL specific for the peptide: comparable range of lytic activity against MCF-7 cells; also recorded: significant range of specific lysis only at a 100:1 E:T ratio
[1]
  cytolytic activity of human CD8^+ CTL raised with the peptide against targets pulsed with the corresponding peptide: higher levels of cytolytic activity against the corresponding peptides
  recognition of TARP-27-35 by human CTL raised with the peptide: to some extent
  cross-reactivity of human CD8^+ CTL raised with the peptide to other peptides (wild-type TARP-29-37, enhanced epitopes): poorly recognized the wild-type and TARP-29-37-9V; also recorded: did not recognize other peptides as much as they did the immunogens; also recorded: did not recognize wild-type peptide very well in the human
  peptide concentration at which CTLs specific for TARP-29-37-9V recognize targets pulsed with the named peptide (avidity): only slightly lower avidity
HLA-A2.1 molecules
  binding affinity to HLA-A2.1 molecules compared with another peptide: greatest increase in the binding affinity; also recorded: not less than that of the positive control peptide, FMP; also recorded: highest binding affinity
CD8^+ T cells
  cycles of in vitro restimulation needed to detect peptide-specific CD8^+ T cells: after only four cycles
A2K^b transgenic mice
  cross-reactivity of murine CD8^+ CTL induced with the peptide: recognition of wild-type TARP-29-37 and other peptides on pulsed targets: recognized TARP-29-37-3A/MHC complex better than other peptide/MHC Class I complexes; also recorded: weak cross-reactivity to wild-type peptide in the mice
  killing of target cells pulsed with TARP-27-35 by murine CTL induced with the peptide: did not kill target cells pulsed with TARP-27-35
  frequency of CD8^+ T cells specific for the individual peptide, compared to wild-type TARP-29-37: almost two-fold higher frequencies of CD8^+ T cells; also recorded: high CD8^+ T cell responses in transgenic mice

## TARP-2-9: amino acids 2-9 of SEQ ID NO: 1 (QMFPPSPL; listed as Homo sapiens)
HLA-A2.1 molecules
  binding capacity to HLA-A2.1 molecules: Neither TARP-2-9 nor TARP-22-30 showed any measurable binding affinity

## substitution with Ala at position 3 in TARP-27-35: TARP-27-35 with Phe at position 3 replaced by Ala (FVALRNFSL; listed as Homo sapiens)
HLA-A2.1 molecules
  binding capacity to HLA-A2.1 molecules: no binding of the peptide to HLA-A2.1 molecules

## TARP-27-35-9V: TARP-27-35 substituted at position 9 with Val (FVFLRNFSV; listed as Homo sapiens)
HLA-A2.1 molecules
  binding affinity to HLA-A2.1 molecules compared with another peptide: did not alter the binding affinity of the wild-type peptide

## TARP-27-35-2L: TARP-27-35 substituted at position 2 with Leu (FLFLRNFSL; listed as Homo sapiens)
HLA-A2.1 molecules
  binding affinity to HLA-A2.1 molecules compared with another peptide: did not alter the binding affinity of the wild-type peptide

## FLRNFSLMV (TARP peptide with a L9V substitution.) [TARP-29-37-9V]
MCF-7; [2]
  lytic activity against MCF-7 of CD8^+ CTL specific for the peptide: higher lytic activity against MCF-7; also recorded: could kill human tumor cells
[1]
  recognition of TARP-27-35 by human CTL raised with the peptide: to some extent
  cross-reactivity of human CD8^+ CTL raised with the peptide to other peptides (wild-type TARP-29-37, enhanced epitopes): could recognize both wild-type and TARP-29-37-3A comparably; also recorded: killed the wild-type peptide (TARP-29-37, SEQ ID NO: 5)-pulsed target cells efficiently; also recorded: to a similar degree to the immunogen
  peptide concentration at which CTLs specific for TARP-29-37-9V recognize targets pulsed with the named peptide (avidity): 0.001 µM
HLA-A2.1 molecules
  binding affinity to HLA-A2.1 molecules compared with another peptide: lower binding affinity to HLA-A2.1 than TARP-29-37-3A; also recorded: did enhance the binding affinity of wild-type peptide
CD8^+ T cells
  cycles of in vitro restimulation needed to detect peptide-specific CD8^+ T cells: at least five cycles
A2K^b transgenic mice
  cross-reactivity of murine CD8^+ CTL induced with the peptide: recognition of wild-type TARP-29-37 and other peptides on pulsed targets: slightly more potent in killing targets pulsed with wild-type TARP-29-37; also recorded: most immunogenic of the peptides in inducing CTLs specific for the wild-type sequence
  killing of target cells pulsed with TARP-27-35 by murine CTL induced with the peptide: could also kill target cells pulsed with TARP-27-35
  frequency of CD8^+ T cells specific for the individual peptide, compared to wild-type TARP-29-37: almost two-fold higher frequencies of CD8^+ T cells; also recorded: higher level of CD8^+ T cell responses than TARP-29-37

## FLRNFSLML (listed as Homo sapiens) [TARP-29-37]
[1]
  recognition of TARP-27-35 by human CTL raised with the peptide: to some extent
  cross-reactivity of human CD8^+ CTL raised with the peptide to other peptides (wild-type TARP-29-37, enhanced epitopes): could recognize and lyse target cells pulsed with the wild-type as well as the two enhanced epitopes; also recorded: killed the wild-type peptide (TARP-29-37, SEQ ID NO: 5)-pulsed target cells efficiently; also recorded: could recognize all four peptide/MHC complexes
  peptide concentration at which CTLs specific for TARP-29-37-9V recognize targets pulsed with the named peptide (avidity): only slightly lower avidity
HLA-A2.1 molecules
  binding capacity to HLA-A2.1 molecules: showed measurable binding capacity
A2K^b transgenic mice; mice immunized with peptide-pulsed DC or plasmid DNA expressing TARP
  peptide-specific CD8^+ T cell responses (CTL): lower peptide-specific CD8^+ T cell responses
A2K^b transgenic mice
  number of IFN-γ-producing CD8^+ T cells, of total CD8^+ T cells: significant number of CD8^+ T cells producing IFN-γ

## TARP-22-30: amino acids 22-30 of SEQ ID NO: 1 (RLEHTFVFL; listed as Homo sapiens)
HLA-A2.1 molecules
  binding capacity to HLA-A2.1 molecules: Neither TARP-2-9 nor TARP-22-30 showed any measurable binding affinity
